Measured values taken from patent US8551723B2, “Tyrosine kinase-inducible domains” (University of Delaware, priority 2010, dated 2013).

Key:
[1] = Dissociation constant determination of peptide-Tb^3+ complexes by Tb^3+ luminescence titration; type: binding
Description: (§1) All experiments were conducted on a Photon Technology International fluorescence spectrometer model QM-3/2003 with a CW source and a Hamamatsu R928PMT using 10 nm excitation and emission slit widths. A 495 nm highpass filter (model 495FG03-25 AM-53074; Andover Corporation) was used on the emission monochromator. Spectra were acquired at room temperature with a scan rate of 1 nm per second. In dissociation constant determinations, the observed luminescence (photon counts s^−1) was not background-corrected and represents the raw fluorescence data. In the presence of buffer only (no peptide, no metal), the luminescence at 544 nm is similar to the luminescence observed in the presence of peptide at the limit of low concentrations of Tb^3+ (approximately 1.8×10^5 photon counts s^−1). Spectral data (FIGS. 3a, […]) represent the average of at least three independent trials and correspond to the averaged spectra that yielded the data points at the given Tb^3+ concentrations in the dissociation constant determination plots. Spectral data in the manuscript were background-corrected. Peptide solutions were prepared by the dilution of peptide stock solutions into buffer containing 5 mM HEPES (pH 7.8) and 100 mM NaCl (final concentrations). Spectra were acquired in 10 mm quartz fluorescence cells (Starna). Tb^3+ titrations were conducted by dilution of a Tb^3+ solution into a peptide solution. All TbCl3 solutions were standardized by titration with a standard solution of EDTA (1 mM) in the presence of xylenol orange indicator (10 μM) and sodium acetate buffer (pH 6.0, 10 mM). EDTA (1 mM) was added to 500 μL of a 1 mM Tb^3+ solution diluted from a 10 mM stock until the end point was reached; Tb^3+ concentration was determined based on 1:1 binding. Each individual emission spectrum represents an independently prepared solution of peptide and metal. The Tb^3+ emission band at 544 nm was used to evaluate metal binding.
To determine dissociation constants for Tb^3+-peptide complexes, Tb^3+ titrations were conducted in solutions of 5 mM HEPES (pH 7.8) and 100 mM NaCl. Each data point represents an independently prepared solution of peptide and metal. Observed luminescence (photon counts s^−1) at the emission maximum of 544 nm were plotted against Tb^3+ concentration to calculate the final Kd. Data points indicate the average of at least three independent titrations. Error bars indicate standard error. […] The quadratic equation solution to the dissociation constant (equation 1) was employed to generate an accurate solution to the binding equilibrium under conditions when the dissociation constant, peptide concentration, and metal concentration may be similar. For phosphorylated pKID-pTyr11, the dissociation constant was also measured in the presence of 2 mM Mg^2+ and 100 μM Ca^2+ to study the effect of these metals on Tb^3+-peptide complex formation.

[2] = Terbium luminescence spectra of non-phosphorylated versus phosphorylated peptides; conditions: 10 μM peptide, 10 mM HEPES (pH 7.8), 100 mM NaCl, excitation 280 nm
Description: FIGS. 3a, 3e and 3f show the luminescence spectra of 10 μM non-phosphorylated (red) and phosphorylated (blue) (a) pKID-pTyr11, (e) pKID-pTyr15a, and (f) pKID-pTyr15b, in the presence of (a, f) 20 μM Tb^3+ or (e) 80 μM Tb^3+. Experiments were conducted in water with 10 mM HEPES (pH 7.8) and 100 mM NaCl with excitation at 280 nm. […] The fold luminescence differentiation between non-phosphorylated and phosphorylated peptides depends on the relative Tb^3+ affinities of the peptides and on the Tb^3+ concentration. FIGS. 3b, 3c, and 3d show the TOCSY spectra of phosphorylated pKID-pTyr11 in the absence (red) and presence (blue) of La^3+ indicating metal-induced peptide folding: (b) H^N—Hα region; (c) H^N—Hβ region; (d) aromatic region.
as §1, with “Peptide solutions were prepared by the dilution of peptide stock solutions into buffer containing 5 mM HEPES (pH 7.8) and 100 mM NaCl (final concentrations).” left out, “Tb^3+ titrations were conducted by dilution of a Tb^3+ solution into a peptide solution. All TbCl3 solutions were standardized by titration with a standard solution of EDTA (1 mM) in the presence of xylenol orange indicator (10 μM) and sodium acetate buffer (pH 6.0, 10 mM).” left out, “Each individual emission spectrum represents an independently prepared solution of peptide and metal. The Tb^3+ emission band at 544 nm was used to evaluate metal binding.” left out

[3] = 10 μM peptide, footnote a: calculated by defining maximum luminescence as equal to that of the phosphorylated peptide-Tb^3+ complex (no saturation)
[4] = peptide-Tb^3+ complex, 10 μM peptide, 5 mM HEPES (pH 7.8), 100 mM NaCl

Work on “Ac-DKDGDGWISPAAAKYAK-NH2 [non-phosphorylated pKID-pTyr15b]” yielded a Kd [1, 3] of 1930 µM.

For “Ac-DKDGDGWISPAAAKpYAK-NH2 [phosphorylated pKID-pTyr15b]”, the Kd [1, 4] was 47 ± 5 µM and the “fold greater luminescence of phosphorylated than non-phosphorylated peptide” value ([2]; 20 μM Tb^3+) was 10.1 fold.

“Ac-DKNADGWIDAAAAKYAK-NH2 [non-phosphorylated pKID-pTyr15a]” gave a Kd [1, 3] of 3200 µM.

With “Ac-DKNADGWIDAAAAKpYAK-NH2 [phosphorylated pKID-pTyr15a]” the Kd [1, 4] was 217 ± 21 µM and the “fold greater luminescence of phosphorylated than non-phosphorylated peptide” value ([2]; 80 μM Tb^3+) was 17.6 fold.

“Ac-DKNADGWIDAAYK-NH2 [non-phosphorylated pKID-pTyr12, control peptide with Tyr at residue 12]” showed a Kd [1, 4] of 6470 µM.

In the case of “Ac-DKNADGWIDAApYK-NH2 [phosphorylated pKID-pTyr12]”, the Kd [1, 4] is reported as 209 ± 32 µM.

Substance “Ac-DKNADGWIDAYAK-NH2 [non-phosphorylated pKID-pTyr11, model tyrosine kinase-inducible domain peptide, Tyr at residue 11]” has a Kd [1, 4] of 1900 ± 280 µM.

For “Ac-DKNADGWIDApYAK-NH2 [phosphorylated pKID-pTyr11, pY indicates phosphotyrosine]”, the “Tb^3+ binding in the presence of competing metals” value ([1]; in the presence of 100 μM Ca^2+ and 2 mM Mg^2+) was “identical”, the Kd ([1]; peptide-Tb^3+ complex, 2 μM peptide with 2 mM Mg^2+ and 100 μM Ca^2+) was 30 µM and the Kd ([1]; peptide-Tb^3+ complex, 2 μM peptide, 5 mM HEPES (pH 7.8), 100 mM NaCl) was 32 µM. The Kd [1, 4] was 54 ± 9 µM, the “fold greater Tb^3+ affinity than the non-phosphorylated peptide” value ([1]; phosphorylated versus non-phosphorylated peptide) was 35 fold and the “fold greater luminescence of phosphorylated than non-phosphorylated peptide” value ([2]; 20 μM Tb^3+) was 6.4 fold.

With “DKNADGWIDAAEK [EF Hand-E12, EF Hand consensus peptide with Glu at residue 12, reference compound]” the Kd [1, 4] was 88 ± 8 µM.

Work on “DKNADGWIDAEAK [EF Control-E11, control peptide with Glu at residue 11, reference compound]” yielded a Kd [1, 4] of 1820 ± 140 µM.
